Experiment: Hygroscopicity and redissolution of dried powder or crystal
Format: physicochemical
Settings: for Hygroscopicity: dried powder or crystal
Method: The powder contained 9.98% of calcium.
The crystal was dried in air at 25° C. to reduce the moisture content to 0.7%.

Row | Compound | Hygroscopicity | Dissolution of powder in water (spray-dried powder)
1 | O=C([O-])CCC(C(=O)[O-])N(CC(=O)[O-])CC(=O)[O-].[Fe+3].[NH4+] (stereo not drawn) [Example 22, ammonium ferric salt of glutamic acid-N,N-diacetic acid] | free of hygroscopicity | –
2 | calcium disodium glutamic acid-N,N-diacetate [Example 13] | free of hygroscopicity | readily dissolved in water
